Reference: paper PMC7018803, “A randomized, placebo-controlled, phase 1 study to evaluate the effects of TAK-063 on ketamine-induced changes in fMRI BOLD signal in healthy subjects” (Psychopharmacology, 2019)

Columns and labels:
[1] = test system: healthy human subjects; details: cited from earlier work
[2] = Plasma ketamine concentrations during intravenous bolus plus continuous infusion; type: in vivo; details: human
Protocol: (§1) Subjects checked in on day − 1 of each treatment period during which vital signs, electrocardiogram (ECG), and laboratory safety tests were repeated. On day 1 of each treatment period, subjects received a 3-, 10-, or 30-mg TAK-063 dose or placebo tablets. Participants then relaxed, slept, or watched movies while remaining in the research environment. Ketamine (0.12 mg/kg intravenous bolus over 60 s followed by a continuous infusion of 0.31 mg/kg/h over approximately 150 min) was administered 4 h after TAK-063 or placebo (Fig. 1). This ketamine dose was based on a previous study that achieved steady-state concentrations of 75 ng/mL and provided a robust BOLD signal with minimal psychotomimetic symptoms (De Simoni et al. [2013]).
Blood samples were collected for the determination of TAK-063 and ketamine concentrations, and ketamine concentrations were used to verify intravenous delivery of ketamine. Blood samples for determination of TAK-063 concentration were collected at pre-dose and at 0.5, 2, 3, 4.5, 6, 8, 10, 12, and 24 h post dose. Blood samples for determination of ketamine concentration were collected at 0.5, 1, 2, and 2.5 h after administration of ketamine. The target ketamine concentration was established at 75 ng/mL. PK samples were not collected from the arm in which ketamine was administered.

[3] = test system: healthy male subjects; assay: Ketamine-induced changes in fMRI BOLD signal during resting state; type: in vivo, human
Protocol: as §1
The scanning protocol for the current study was very comprehensive and included multiple MR approaches. This publication reports the BOLD fMRI data for the working memory task, but also resting state fMRI. The magnetic scanning portion of the neuroimaging test battery was initiated 20 min before ketamine dosing. Imaging was performed using a 3 Tesla Siemens Trio scanner. The MR scanning protocol was initiated 20 min before ketamine dosing; prior to scanning, a structural magnetization prepared rapid gradient echo (MPRAGE) scan was collected. As part of the scanning protocol, each subject received 20 min of scanning − 10 min arterial spin labeling (ASL) plus 10 min resting BOLD prior to ketamine infusion. After ketamine infusion, the resting state fMRI BOLD acquisition continued for an additional 10 min. Next, a Spatial Working Memory task-induced fMRI BOLD acquisition was performed for 15 min. Following these BOLD acquisitions, another 10 min ASL scan was acquired and a 10-min T1 relaxometry scan was conducted. The MR scanning sequence ended with a 5-min MPRAGE acquisition.
Fifty sequential gradient-echo echoplanar images (EPIs) sensitive to blood oxygenation level-dependent (BOLD) signal were collected in contiguous slices of 6-mm thickness, with 3000-ms repetition time, 40-ms echo time, 20 × 20-cm field of view, a 64 × 64 image matrix, 70° flip angle, and an in-plane resolution of 3 × 3 mm. A working memory challenge based on the expectancy A-X Continuous Performance Test (AX-CPT) paradigm was presented. The AX-CPT task was implemented in Eprime and presents 144 trials in four blocks of 36 trials. Before scanning, participants practiced the task (Barch et al. [2001]; MacDonald et al. [2003]).
We conducted a number of pre-processing steps to standardize examination of data after acquisition. These steps included (a) using the anatomical image (T1 weighted MPRAGE acquired for each subject at the beginning of the imaging session) to determine the parameters for spatial normalization to the EPI template image supplied with statistical parametric mapping (SPM) using a 12-parameter transformation; (b) registering functional images to correct for subject movement during the experimental paradigm; (c) normalizing functional images to transform images from analyzed subjects into the same standard space; (d) smoothing images (8-mm full width at half maximum [FWHM]) to minimize normalization artifacts and improve signal to noise ratio; (e) applying a high pass filter of 1200 s to the data following spatial smoothing to minimize the influence of very low frequency noise present in fMRI BOLD data without distorting the ketamine response profile. […]

[4] = 0.12 mg/kg iv bolus then 0.31 mg/kg/h infusion; ref De Simoni et al. [2013]; cited from earlier work

Cc1nc2n(c(=O)c1CCN1CCC(c3noc4cc(F)ccc34)CC1)CCCC2 [risperidone]
ketamine-induced changes in BOLD signal ([1]; ref Doyle et al. [2013], Shcherbinin et al. [2015]): reversed | ketamine-induced changes in brain perfusion (ASL) ([1]; ref Shcherbinin et al. [2015]): increased ketamine-induced perfusion changes

CNC1(c2ccccc2Cl)CCCCC1=O (stereo not drawn) [ketamine]
concentration at 30 min ([2]; 30 min post dose, with placebo or TAK-063 3 to 30 mg, range of means): 69.9 to 83.3 ng/mL | Cmax ([2]; during continuous infusion, range of means across regimens): 168 to 179 ng/mL | Tmax ([2]; range across regimens): 2.3 to 2.5 h | activation in ROIs ([3]; percent BOLD signal change, resting state (Fig. 7)): increased activation in all ROIs examined | effect on fMRI BOLD resting signal ([3]; placebo group, most regions studied): increased fMRI BOLD resting signal | effect on fMRI BOLD in cingulate/BA25 ([3]; placebo group, resting state): decrease in fMRI BOLD | steady-state concentration [4]: 75 ng/mL
